Results reported in PubChem BioAssay AID1845195 (Molecular Pharmacology Branch, DTP, NCI, 2023).

System: 156681-154-R-J1 tumor spheroid viability
Assay: Anticancer human tumor 156681-154-R-J1 patient-derived melanoma cell line growth inhibition
Conditions: spheroids with HUVEC and MSC; for IC50: curve of first compound; for viability, T/C: stronger effect = lower value
From the text: Multicellular complex tumor spheroid response to DNA repair inhibitors in combination with DNA-damaging drugs
This study explores the anticancer activities of DNA-damaging drugs and inhibitors of DNA damage repair, both as single agents and in combinations. Complex tumor spheroids comprised of malignant cells, endothelial cells and mesenchymal stem cells served as an in vitro model for human solid tumors. This model system incorporates physiologically relevant features and patient-derived or established malignant cell lines with clinically relevant genetic alterations from many tumor types. Twenty-six patient-derived or established malignant cell lines were evaluated representing sarcoma, melanoma, small cell lung cancer (SCLC), non-small cell lung cancer (NSCLC), as well as bladder, ovarian and pancreatic cancers. The concentration ranges selected for each drug and investigational agent were based upon clinically achievable concentrations if the clinical Cmax of the agent was known.
Compounds. The drugs and compounds olaparib (NSC753686), talazoparib (NSC767125), berzosertib (NSC777718), elimusertib (NSC800525), nedisertib (NSC802822), VX-984 (NSC792969), AZD-1390 (NSC803789), temozolomide (NSC362856), topotecan (NSC609699), trabectedin (NSC813783), staurosporine (NSC755774), and gemcitabine (NSC613327) were obtained from the National Cancer Institute (NCI) Developmental Therapeutics Program Chemical Repository. The FDA-approved anticancer drug set is available from the Developmental Therapeutics Program at https://dtp.cancer.gov/organization/dscb/obtaining/available_plates.htm. […] The stock solutions were prepared in dimethyl sulfoxide (DMSO, Sigma-Aldrich, St. Louis, MO, cat. D2650) at 400-fold the tested concentration and stored at -70 degrees C. Prior to their use, the stock solutions were diluted in fresh medium and the final DMSO concentration in the assay was 0.25% (v/v). All drugs and investigational agents were tested over a range starting from a high concentration at or near the clinical Cmax and decreasing in half-log increments. If the clinical Cmax for an agent had not been determined, the highest concentration tested was 10 microM.
Cell Lines. The patient-derived cancer cell (PDC) lines: 156681-154-R-J1-PDC, 283228-195-R-J1-PDC, 287954-098-R-J1-PDC, 292921-168-R-J2-PDC, 349418-098-R-PDC, 425362-245-T-J1-PDC, 556581-035-R-J1-PDC, and BL0293-F563-PDC were received from the NCI Patient-Derived Models Repository (PDMR, https://pdmr.cancer.gov). The established cell lines HS-SY-2 (RRID:CVCL_8719), MPNST, and SYO-1 (RRID:CVCL_7146) were obtained from the Sloan Kettering Institute. The alveolar soft parts sarcoma cell line ASPS-1 (RRID:CVCL_S738) was established at the NCI and grown from internal seed stocks. The following established cell lines were purchased from the American Type Culture Collection (ATCC, Manassas, VA): G-401 (ATCC, cat. CRL-1441, RRID:CVCL_0270), SW982 (ATCC, cat. HTB-93, RRID:CVCL_1734), VA-ES-BJ (ATCC, cat. CRL-2138, RRID:CVCL_1785), NCI-H719 (ATCC, cat. CRL-5837, RRID:CVCL_1582), NCI-H196 (ATCC, cat. CRL-5823, RRID:CVCL_1509), NCI-H841 (ATCC, cat. CRL-5845, RRID:CVCL_1595), NCI-H1618 (ATCC, cat. CRL-5879, RRID:CVCL_1480), NCI-H1876 (ATCC, cat. CRL-5902, RRID:CVCL_1503), DMS 114 (ATCC, cat. CRL-2066; RRID:CVCL_1174), NCI-H211 (ATCC, cat. CRL-5824; RRID:CVCL_1529), and SW 1271 (ATCC, cat. CRL-2177, RRID:CVCL_1716). The small cell lung cancer cell line COR-L88 was purchased from Sigma-Aldrich (cat. 92031917-1VL, RRID:CVCL_1141). The non-small cell lung cancer cell lines NCI-H226 (RRID:CVCL_1544) and NCI-H322M (RRID:CVCL_1557) were established at the NCI and grown from internal seed stocks. Pooled donor human umbilical vein endothelial cells (HUVEC, Lonza, cat. CC-2519) and human mesenchymal stem cells (hMSC, Lonza, cat. PT-2501) were purchased from Lonza (Walkersville, MD).
Cell Culture. All cells were maintained in an incubator at 37 degrees C and 5% CO2 with 95% humidity. […]

[1] = second compound 0.003 µM, first compound 0.00949 µM
[2] = second compound 0.003 µM, first compound 0.03 µM
[3] = second compound 0.003 µM, first compound 0.0949 µM
[4] = second compound 0.003 µM, first compound 0.3 µM
[5] = second compound 0.003 µM, first compound 0.949 µM
[6] = second compound 0.003 µM, first compound 3 µM
[7] = second compound 0.00949 µM, first compound 0.00949 µM
[8] = second compound 0.00949 µM, first compound 0.03 µM
[9] = second compound 0.00949 µM, first compound 0.0949 µM
[10] = second compound 0.00949 µM, first compound 0.3 µM
[11] = second compound 0.00949 µM, first compound 0.949 µM
[12] = second compound 0.00949 µM, first compound 3 µM
[13] = second compound 0.03 µM, first compound 0.00949 µM
[14] = second compound 0.03 µM, first compound 0.03 µM
[15] = second compound 0.03 µM, first compound 0.0949 µM
[16] = second compound 0.03 µM, first compound 0.3 µM
[17] = second compound 0.03 µM, first compound 0.949 µM
[18] = second compound 0.03 µM, first compound 3 µM
[19] = second compound 0.0949 µM, first compound 0.00949 µM
[20] = second compound 0.0949 µM, first compound 0.03 µM
[21] = second compound 0.0949 µM, first compound 0.0949 µM
[22] = second compound 0.0949 µM, first compound 0.3 µM
[23] = second compound 0.0949 µM, first compound 0.949 µM
[24] = second compound 0.0949 µM, first compound 3 µM
[25] = second compound 0.3 µM, first compound 0.00949 µM
[26] = second compound 0.3 µM, first compound 0.03 µM
[27] = second compound 0.3 µM, first compound 0.0949 µM
[28] = second compound 0.3 µM, first compound 0.3 µM
[29] = second compound 0.3 µM, first compound 0.949 µM
[30] = second compound 0.3 µM, first compound 3 µM
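Note: spheroids exposed to compounds for 7 days before readout.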
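Throughout, for viability, T/C: percent of vehicle control viability where 100% = DMSO-treated spheroids.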

Structure (SMILES)	IC50 (second compound 0.003 µM) [µM]	IC50 (second compound 0.00949 µM) [µM]	IC50 (second compound 0.03 µM) [µM]	IC50 (second compound 0.0949 µM) [µM]	IC50 (second compound 0.3 µM) [µM]	viability, T/C [1] [%]	viability, T/C [2] [%]	viability, T/C [3] [%]	viability, T/C [4] [%]	viability, T/C [5] [%]	viability, T/C [6] [%]	viability, T/C [7] [%]	viability, T/C [8] [%]	viability, T/C [9] [%]	viability, T/C [10] [%]	viability, T/C [11] [%]	viability, T/C [12] [%]	viability, T/C [13] [%]	viability, T/C [14] [%]	viability, T/C [15] [%]	further results
CNCc1ccc(-c2cc(-c3nc(-c4ccc(S(=O)(=O)C(C)C)cc4)cnc3N)on2)cc1 + CC[C@@]1(O)C(=O)OCc2c1cc1n(c2=O)Cc2cc3c(CN(C)C)c(O)ccc3nc2-1	0.733	0.451	0.296	< 0.00949	< 0.00949	103	93.6	82.1	65.2	46.8	20.3	136	92.3	73.8	58.8	46.8	7.92	66	60.1	60.1	viability, T/C [16]: 50.4%; viability, T/C [17]: 27.5%; viability, T/C [18]: 7.5%; viability, T/C [19]: 17.7%; viability, T/C [20]: 19.3%; viability, T/C [21]: 24.2%; viability, T/C [22]: 14.5%; viability, T/C [23]: 12.8%; viability, T/C [24]: 0.15%; viability, T/C [25]: 31.1%; viability, T/C [26]: 26.9%; viability, T/C [27]: 24.2%; viability, T/C [28]: 24.2%; viability, T/C [29]: 14.8%; viability, T/C [30]: 10%
Cc1sc2c(c1C)C(c1ccc(Cl)cc1)=NC(CC(=O)Nc1ccc(O)cc1)c1nnc(C)n1-2 (stereo not given) + CC[C@@]1(O)C(=O)OCc2c1cc1n(c2=O)Cc2cc3c(CN(C)C)c(O)ccc3nc2-1	1.46	1.96	0.0786	< 0.00949	< 0.00949	155	103	81.1	70	61.1	47.4	68.4	88.6	82.6	75.4	62.4	42.8	50.1	54.9	51.3	viability, T/C [16]: 39%; viability, T/C [17]: 29.8%; viability, T/C [18]: 19.1%; viability, T/C [19]: 22.5%; viability, T/C [20]: 21.8%; viability, T/C [21]: 21%; viability, T/C [22]: 22.5%; viability, T/C [23]: 24.6%; viability, T/C [24]: 24.4%; viability, T/C [25]: 33.2%; viability, T/C [26]: 29.1%; viability, T/C [27]: 31.1%; viability, T/C [28]: 24.8%; viability, T/C [29]: 25.4%; viability, T/C [30]: 16.5%
